Experimental data published in patent publication US20210361600A1, “METHODS FOR INDUCING CHONDROGENESIS” (THE SCRIPPS RESEARCH INSTITUTE, priority 2017, published 2021).
pEC50: −log10 of the molar value. Entries after “also recorded” stand apart in the source; their conditions may differ.

Tests used:
[1] = test system: Rat Medial Meniscal Tear Model; experiment: Dose range study of compound A in a rat medial meniscal tear model; format: in vivo, Lewis rats
Experimental: The vehicle was prepared separately and then added to aliquots of compound A powder, after which the mixture was vortexed and becomes a clear solution. Dosing solutions were prepared for doses ranging from 30 μM to 0.3 μM. Dosing volume was set to 30 μL/knee. Dosing solutions were prepared fresh for each dose. Dosing solutions were verified at the end of the study. The positive control compound FGF-18 stock was reconstituted in 5 mM Tris, pH 8.0 as per manufacturer's instructions. The FGF-18 stock was further diluted in saline to a final concentration of 0.167 mg/mL. Fresh dilutions were prepared twice a week at the time of injection.
Fourteen-week-old male Lewis rats (Charles River, Kingston, N.Y.) were in the weight range of 285-327 g.
Rats were sorted based on body weight into 8 study groups of 15 rats. They were surgerized and enrolled in a staggered fashion across one week (enroll 20 animals per day for 6 days). Animals were anesthetized with a ketamine/xylazine cocktail (50 mg/kg Ketaved—Henry Schein, and 5 mg/kg Xyalzine AniSed, respectively) by intraperitoneal injection, administered appropriate analgesics (Flunixin, 5 mg/kg subcutaneous injection), and the surgical site shaved and disinfected. A small incision was made on the medial right hind knee to expose the collateral ligament. The collateral ligament was transected and the joint capsule opened sufficiently to expose the medial meniscus. The meniscus was transected completely, then the skin incision was closed, and pressure applied to the wound to prevent hematoma development. Animals were allowed to recover on a heated blanket and were returned to their home cages. Sham procedures were carried out in a similar fashion except the medial meniscus was not cut. All surgical procedures were performed aseptically and all procedures were approved by the IACUC. Animals were monitored daily for the following week for postoperative care prior to dosing. Any animals with atypical healing (bruising/hematoma) were removed from the study and replaced with spare animals. Animals were enrolled into the following groups: […]

[2] = test system: Canine Model of Osteoarthritis; experiment: Efficacy of compound A in a canine model of osteoarthritis; format: in vivo, Beagle dogs
Experimental: The clear solution was then filtered in a 0.45 μm filter prior to intraarticular dose. Dosing solution was prepared fresh on the day of dosing.
Twelve to fifteen-month-old female naïve Beagle dogs were obtained from Marshall BioResouces (North Rose, N.Y.) with a weight range of 5.4 to 9.3 kilograms.
The goal was to sort and ensure that behavioral characteristics were shared among all groups, so that the activity level and use of the joints while not in regimented exercise would be uniform between groups. In addition to sorting by temperament, animals were also sorted by body weights, with equal distribution between study groups. Animals were acclimated to an exercise regimen of 1 hour of walking/running/playing prior to study start.
Animals were food deprived prior to surgery, anesthetized using propofol (6 mg/kg, IV), and maintained on isoflurane (3-4%) in oxygen (2 L/min) for the duration of the procedure (10-15 minutes). The right rear knee was shaved and aseptically prepared. A medial skin incision was made to expose the collateral ligament. A portion of the medial meniscus was cut (a wedge roughly half the width of the medial meniscus was removed). The joint capsule and subcutis were closed with sutures, and skin closed with wound clips. Sham animals were treated in the same manner except for the medial meniscus partial transection. All animals were allowed to recover for 10-11 days prior to dosing. Three days after surgery, all animals began an exercise regimen of one hour of continuous exercise (walking/running/playing), to ensure that the animals were using the surgerized leg and to allow for a more uniform development of lesions across a group of differently tempered dogs.
All animals were exercised 5 days a week for an hour for the duration of the study. At study day 10/11, animals began receiving weekly injections of either compound or vehicle into the surgerized joint. Blood samples were also taken pre-dose for all animals for compound determination. Animals received doses at day 10, 17, 24, 31, 38, and 45 post surgery. All intraarticular doses were standardized to 0.5 mL injections into the joint capsule via injection through the patellar ligament.
On day 52, animals received a terminal blood sample and were euthanized. Plasma samples were used for biomarker determination. Urine and synovial fluid was collected at necropsy, and the knees were harvested for histology and pathology analysis.
Osteoarthritic lesions were scored based on lesion size, depth, severity and changes in subchondral bone and osteophyte formation. Both the femur and the tibia on either side of the meniscal cut were examined. Statistical analysis used Student's two-tailed test or Mann-Whitney U Test (non-parametric).
For terminal plasma samples, biomarker ELISAs were run to quantify levels of PIINP. The kit procedures were followed as per manufacturer's instructions. Data were analyzed with a Student's t-test.

[3] = test system: cartilage-oligo matrix protein (COMP); experiment: In vitro chondrogenesis, transcript level by qPCR; format: cell-based, human; details: for Induction of COMP: 7-day treatment
Experimental: The RNA was exacted using RNeasy kit following the manufacturer's protocol. cDNA was synthesized using SuperScript III first strand synthesis kit and the transcript levels of proteoglycan 4 (PRG4), sex-determining region Y-Box 9 ([…]) and cartilage-oligo matrix protein (COMP) were determined using Taqman gene expression assays (probes) from ThermoFisher.
ΔΔCT method was applied to calculate the relative abundance of each gene using ([…] as normalizing control using ViiA 7 RUO software (ThermoFisher). The abundance of each gene of each sample was expressed as fold over DMSO-treated controls. n=3. Dose response for each marker gene was analyzed using GraphPad Prism 7 software.

[4] = Intravenous acute toxicity study in Crl:CD(SD) rat (toxicokinetics); format: in vivo; details: for AUC(0-t) / Cmax / half-life: Crl:CD(SD), rat, plasma; for Tlast: median
Experimental: For toxicokinetic evaluation, an additional 3 rats/sex/group were added for the 1 or 2.4 mg/kg dose groups. Toxicokinetic parameters were determined, where feasible, by non-compartmental analysis.

[5] = in vivo; parameters: species or system Crl:CD(SD) rat; details: rat; for half-life: t1/2
[6] = in vivo; details: male, Crl:CD(SD), rat, 2.1 ug
[7] = Intra-articular acute toxicity study in Crl:CD(SD) rat (toxicokinetics); details: for Tlast: male rats, median
[8] = 0.035 mg/knee IA weekly for 6 weeks, vs vehicle
[9] = female rats, single IV 1 mg/kg, mean
[10] = female rats, single IV 2.4 mg/kg, mean
[11] = male rats, single IV 1 mg/kg, mean
[12] = male rats, single IV 2.4 mg/kg, mean
[13] = female, Crl:CD(SD), iv, 0.25 mg/kg
[14] = female, Crl:CD(SD), iv, 0.75 mg/kg
[15] = female, Crl:CD(SD), iv, 2.5 mg/kg
[16] = male, Crl:CD(SD), iv, 0.25 mg/kg
[17] = male, Crl:CD(SD), iv, 0.75 mg/kg
[18] = male, Crl:CD(SD), iv, 2.5 mg/kg
[19] = dose increment of 5.7 fold (from 2.1 to 12 μg)
[20] = male, Crl:CD(SD), rat, plasma, 12 ug

COCCc1ccc(NC(=O)c2ccccc2NS(C)(=O)=O)cc1 [Compound A, N-(4-(2-methoxyethyl)phenyl)-2-(methylsulfonamido)benzamide]
total joint scores without the femur ([1]; 30 μM (0.315 μg/knee) IA once every other week, vs vehicle): significantly improved; also recorded: significant improvement
degree of improvement of total joint score compared with positive control ([1]; 30 μM dose, FGF-18 5 μg/injection twice a week): on par with FGF-18
adverse effects ([1]; IA once every other week, any of the doses tested (30, 10, 3, 1, 0.3 μM)): no adverse effects
degree of substantial cartilage degeneration in the femur [2, 8]: significantly improved; also recorded: significant reduction
level of bone sclerosis [2, 8]: reduced; also recorded: improved
width of total cartilage degeneration (all severities), femur [2, 8]: no effect
tibial cartilage damage ([2]; effect not statistically significant): less severe
circulating PIINP in plasma (ELISA) ([2]; terminal samples 1 week post final dose, vs vehicle): significantly elevated
Induction of COMP ([3]; 0.457 nM): 1.005 ± 0.100 fold increase
Induction of COMP ([3]; 1.37 nM): 0.776 ± 0.107 fold increase
Induction of COMP ([3]; 4.11 nM): 1.322 ± 0.804 fold increase
Induction of COMP ([3]; 12.3 nM): 2.942 ± 0.575 fold increase
Induction of COMP ([3]; 37.0 nM): 1.356 ± 0.590 fold increase
Induction of COMP ([3]; 111 nM): 0.706 ± 0.193 fold increase
Induction of COMP ([3]; 333 nM): 1.896 ± 0.187 fold increase
Induction of COMP ([3]; 1000 nM): 3.121 ± 0.709 fold increase
pEC50 ([3]; 168 h, primary human MSCs, 7 days, read-out: EC50 (COMP induction)): ~8.35
AUC(0-t) [4, 9]: 2900 ng·h/mL
Cmax [4, 9]: 9190 ng/mL
half-life [4, 9]: 28.8 min
Cmax [4, 10]: 9020 ng/mL
half-life [4, 10]: 31.8 min
AUC(0-t) ([4]; female rats, single IV 2.4 mg/kg, mean, t = 4 hours): 5690 ng·h/mL
AUC(0-t) [4, 11]: 2500 ng·h/mL
Cmax [4, 11]: 11200 ng/mL
half-life [4, 11]: 22.2 min
AUC(0-t) [4, 12]: 4510 ng·h/mL
Cmax [4, 12]: 9430 ng/mL
half-life [4, 12]: 24 min
half-life ([4]; both sexes, single IV administration, range over groups): 18 to 36 min
Tlast ([4]; female rats, single IV 1 mg/kg): 2 h
Tlast ([4]; female rats, single IV 2.4 mg/kg): 4 h
mean AUC0-t, higher dose compared to 1 mg/kg ([4]; females, single IV): ~2.0 fold
Tlast ([4]; male rats, single IV 1 mg/kg): 2 h
Tlast ([4]; male rats, single IV 2.4 mg/kg): 2 h
mean AUC0-t, higher dose compared to 1 mg/kg ([4]; males, single IV): approximately 1.8 fold
gender differences in systemic exposure (Cmax and AUC0-t) ([4]; single IV, either dosing regimen): no notable gender differences
time up to which quantifiable in the plasma of all animals ([5]; both, Crl:CD(SD), iv): at least 4 hours
AUC(0-t) [5, 13]: 764 ng·h/mL
Cmax [5, 13]: 1380 ng/mL
t1/2 [5, 13]: 32.4 min
AUC(0-t) ([5]; female, Crl:CD(SD), iv, 0.25 mg/kg, AUC0-t): 871 ng·h/mL
Cmax ([5]; female, Crl:CD(SD), iv, 0.25 mg/kg, Cmax): 1230 ng/mL
half-life [5, 13]: 34.8 min
AUC(0-t) [5, 14]: 1920 ng·h/mL
Cmax [5, 14]: 4800 ng/mL
t1/2 [5, 14]: 28.8 min
AUC(0-t) ([5]; female, Crl:CD(SD), iv, 0.75 mg/kg, AUC0-t): 2250 ng·h/mL
Cmax ([5]; female, Crl:CD(SD), iv, 0.75 mg/kg, Cmax): 3490 ng/mL
half-life [5, 14]: 35.4 min
t1/2 [5, 15]: 43.8 min
half-life [5, 15]: 37.8 min
AUC(0-t) [5, 16]: 633 ng·h/mL
Cmax [5, 16]: 2060 ng/mL
t1/2 [5, 16]: 25.2 min
AUC(0-t) ([5]; male, Crl:CD(SD), iv, 0.25 mg/kg, AUC0-t): 657 ng·h/mL
Cmax ([5]; male, Crl:CD(SD), iv, 0.25 mg/kg, Cmax): 1940 ng/mL
half-life [5, 16]: 23.4 min
AUC(0-t) [5, 17]: 2160 ng·h/mL
t1/2 [5, 17]: 25.8 min
AUC(0-t) ([5]; male, Crl:CD(SD), iv, 0.75 mg/kg, AUC0-t): 3120 ng·h/mL
half-life [5, 17]: 37.8 min
t1/2 [5, 18]: 42.6 min
half-life [5, 18]: 38.4 min
gender differences in mean Cmax and mean AUC0-t [5]: no significant gender differences
differences in systemic exposure following single and repeated IV administration ([5]; iv): no significant
Cmax [6]: 13.8 ng/mL
increase in mean AUC0-t [7, 19]: 2 fold
increase in mean Cmax [7, 19]: 2 fold
Tlast ([7]; single IA dose 2.1 μg/knee, plasma): 2.00 h
Tlast ([7]; single IA dose 12 μg/knee, plasma): 2.00 h
AUC(0-t) ([7]; male, Crl:CD(SD), rat, plasma, 2.1 ug): 12.1 ng·h/mL
AUC(0-t) [7, 20]: 23.9 ng·h/mL
Cmax [7, 20]: 27.8 ng/mL
